Paper PMC9861623, “New Ferulic Acid and Amino Acid Derivatives with Increased Cosmeceutical and Pharmaceutical Potential” (Pharmaceutics, 2022)
Several values for one entry are separate records, joined by “and”; a condition that tells them apart may be missing. Equal values may be shown once.

Assays:
[1] = n-octanol/water partition coefficient by shake flask method; assay type: physicochemical; details: from log PO/W
Experimental: The n-octanol/water partition coefficient (log PO/W) was determined for ferulic acid and its derivatives by shake flask method. n-Octanol saturated with water and water saturated with n-octanol were prepared at 25 °C, 24 h prior to their use in the experiments. Then, a sample of 10 mg of compound was weighed with the accuracy of 0.01 mg in a 16 cm^3 screwed vial and dissolved in 5 cm^3 of n-octanol. Next, 5 cm^3 of water was added to the vial. The resulting two-phase mixture was kept in water bath shaker at 25 °C for 2 h and was strongly shaken to reach the partition equilibrium of the compound between the phases. Then the mixture was left unshaken for 30 min and 1.0 cm^3 of water phase was carefully taken out to centrifuge tube. The sample was next centrifuged for 10 min at 7500 rpm at 25 °C to ensure the most precise phase separation. The concentration of compound in water phase was then determined using HPLC method. The partition coefficient, log PO/W was calculated according to the formula: logPO/W=logC0V0−CWVW/CWVW where: C0—initial concentration of the compound in n-octanol, calculated based on the weighed mass of compound, mg·cm^−^3; V0—volume of n-octanol, cm^3; CW—concentration of the compound in water after partition equilibrium, mg·cm^−^3; VW—volume of water, cm^3.

[2] = DPPH radical scavenging assay of the compounds
Experimental: (§1) To determine the antioxidant capacity of ferulic acid and its derivatives the DPPH method was used. The analyses were performed using the Hitachi UV-Vis Spectrophotometer U-5100 at the wavelength λ = 517 nm. Trolox (6-hydroxy-2,5,7,8-tetramethylchroman-2-carboxylic acid) was used as a reference substance. The antioxidant activity was expressed as %RSA and mmol Trolox dm^−3. […]. Blank samples without antioxidant were prepared in the same way. The tubes were wrapped in aluminum foil and were sealed with a stopper and then incubated for 10 min at room temperature. After this time, spectrophotometric measurements were carried out in triplicate. For determination of antioxidant activity of the acceptor fluid after 24 h of permeation and solutions obtained by extraction of the skin obtained after penetration study, 0.15 mL samples of each solutions were separately added to 2.85 mL of DPPH solution and spectrophotometric measurements were performed. The antioxidant activity was expressed as mmol Trolox·dm^−3.

[3] = DPPH antioxidant activity of solution obtained after skin extraction; design: species or system pig; details: after 24 h penetration, listed as FA
Experimental: as §1
The accumulation of the FA and its derivatives in the skin after 24 h permeation process through the skin were determined using a modification of the methods described by Janus et al. and Taokaew et al.. After 24 h of permeation experiment, the skin samples were removed from the Franz diffusion cell, washed three times with 0.5% sodium lauryl sulfate solution and dried at room temperature. Next, after cutting out the diffusion area of each skin sample, the samples were immersed in 2 mL of absolute ethanol and continuously stirred at 300 rpm at room temperature for 24 h. The samples were then centrifuged, and clear solutions were collected and analyzed by HPLC method for the determination of FA and its derivatives. The accumulation of the active substance in the skin was calculated by dividing the amount of the drug remaining in the skin by a mass of skin sample and was expressed in mass active substance per mass of the skin (µg g^−1). For solution obtained after skin extraction, the antioxidant activity and total polyphenol content were also determined (as described in Section 2.5.1 and Section 2.5.2).

[4] = Thermogravimetric (TG) analysis, thermal stability; assay type: physicochemical
Experimental: Samples of 2–5 mg, loaded in aluminium crucibles, were heated from 30 °C to 600 °C at the heating rate of 10 °C·min^−1, in the air atmosphere (25 mL·min^−1) with nitrogen flow (10 mL·min^−1) as the purge gas.

3T3-L1 cells = tested on: 3T3-L1 cells; design: method as in PMID 29077251; details: 3T3-L1, 500 μg mL^−1; cited from earlier work
fibroblasts = tested on: fibroblasts; design: method as in doi:10.3390/pr9071204; details: fibroblasts after UVB irradiation, increased from 9.92%; cited from earlier work
diabetic rats = tested on: diabetic rats; design: method as in doi:10.1016/j.jddst.2022.103621; details: 50 mg kg^−1 body wt., orally for 8 weeks; cited from earlier work
[5] = molar ratio antioxidant:DPPH 0.1, 10 min, listed as FA
[6] = molar ratio antioxidant:DPPH 1.0, 10 min
[7] = molar ratio antioxidant:DPPH 2.0, 10 min, listed as FA

## COc1cc(/C=C/C(=O)O)ccc1O [Ferulic acid]
[1]
  Share of compound partitioned to n-octanol: ~98%
[2]; [5]
  Antioxidant activity %RSA: 12.4 ± 0.001 %RSA and 12.4 ± 0.001 a %RSA
  Antioxidant activity, Trolox equivalents: 0.049 ± 0.001 mmol Trolox dm^−3 and 0.049 ± 0.001 a mmol Trolox dm^−3
[2]; [6]
  Antioxidant activity %RSA: 73.2 ± 0.001 b %RSA
  Antioxidant activity, Trolox equivalents: 0.635 ± 0.001 b mmol Trolox dm^−3
[2]; [7]
  Antioxidant activity %RSA: 86.5 ± 0.001 %RSA and 86.5 ± 0.001 b %RSA
  Antioxidant activity, Trolox equivalents: 0.763 ± 0.001 mmol Trolox dm^−3 and 0.763 ± 0.001 b mmol Trolox dm^−3
[3]; emulsion
  DPPH antioxidant activity of the solution obtained after skin extraction: 0.300 ± 0.024 b mmol Trolox dm^−3
[3]; ethanol solution
  DPPH antioxidant activity of the solution obtained after skin extraction: 0.394 ± 0.004 mmol Trolox dm^−3 and 0.394 ± 0.004 b mmol Trolox dm^−3
[3]; hydrogel
  DPPH antioxidant activity of the solution obtained after skin extraction: 0.381 ± 0.011 mmol Trolox dm^−3 and 0.381 ± 0.011 b mmol Trolox dm^−3
[4]; TG, air atmosphere, 10 °C·min^−1
  Td onset, the onset of decomposition: 217.0 °C
[4]; TG/DTG, air atmosphere, 10 °C·min^−1
  Td max, temperature of the fastest mass loss of the sample: 251.2 °C
[4]; according to the DTG curve
  Temperature range of decomposition (main weight loss): 175–300 °C
3T3-L1 cells
  toxicity on normal cells: did not cause any toxicity
fibroblasts
  percentage of viable cells: 46.02%
Diabetic rats
  effect in diabetic rats: markedly ameliorated kidney injury, renal cell apoptosis, inflammation, and defective autophagy in the kidneys
